This is an account of results in ChEMBL document CHEMBL1201862, “PubChem BioAssay data set” (2004).

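Assay format: 96-well plates, 48-hour exposure. GI50 is the concentration that inhibits growth by half.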 Active and inactive are the calls of the source. Cut-off read from the data, not from the text of the source: active = GI50 up to about 1.1 µM and inactive = higher. Where only a bound is given, the exact number is not on record here.

Assay in all cases: NCI tumour cell line growth inhibition, 48 h
The test system of test [1] is HT-29.
Test [2] concerns UO-31.
Test [3] relates to A498.
For test [4], the system named is OVCAR-8.
For test [5], the system named is RXF 393.
The subject of test [6] is IGROV-1.
Test [7] deals with SF-268.
Test [8] has as its system HOP-92.
For test [9], the system named is MDA-MB-231.
For test [10], the system named is NCI-H522.
In test [11] the test system is OVCAR-4.
The test system of test [12] is EKVX.
Test [13] concerns TK-10.
The subject of test [14] is LOX IMVI.
Test [15] has as its system COLO 205.
Test [16] deals with HCT-116.
Test [17] relates to HCC 2998.
The test system of test [18] is SNB-19.
Test [19] concerns K562.

Take `Cc1nnc(Sc2nc(C#N)c(C#N)nc2Sc2nnc(C)s2)s1`: the GI50 in [1] was 4.18 µM (inactive); in test [2] it was 3.35 µM (inactive); in test [3] it was 18.7 µM (inactive); in [4] it was 2.47 µM (inactive); in test [5], 1.92 µM (inactive); in test [6], 7.24 µM (inactive). Also, the GI50 in test [7] was 23.6 µM (inactive); in test [8], 2.14 µM (inactive); in test [9], 15.9 µM (inactive); in test [10], 1.57 µM (inactive); in test [11] it was 13.4 µM (inactive); in test [12], 19.3 µM (inactive). Moreover, the GI50 in [13] is 11.1 µM (inactive); in [14] it was 2.72 µM (inactive); in test [15], 4.84 µM (inactive); in [16] it was 10.3 µM (inactive); in test [17], 20 µM (inactive); in test [18], 22 µM (inactive). Further, in test [19], the GI50 is 3.48 µM (inactive).
Consider `Cc1ccc([N+](=O)[O-])c2c(NCCNC(=O)c3cc(C(=O)NCCNc4ccnc5c(C)ccc([N+](=O)[O-])c45)n(C)n3)ccnc12`, for which the GI50 is > 77.8 µM (inactive) in test [1]; > 100 µM (inactive) in test [2]; > 57.4 µM (inactive) in test [3]; > 72.1 µM (inactive) in [4]; > 100 µM (inactive) in test [5]; > 100 µM (inactive) in test [6]. Moreover, the GI50 was > 100 µM (inactive) in [7]; > 100 µM (inactive) in [8]; > 54 µM (inactive) in test [9]; > 67.3 µM (inactive) in test [10]; > 49.1 µM (inactive) in test [11]; > 100 µM (inactive) in test [12]. Also, the GI50 in test [13] is > 80.7 µM (inactive); in test [14], > 44.7 µM (inactive); in test [15], > 100 µM (inactive); in test [16], > 100 µM (inactive); in test [17], > 100 µM (inactive); in test [18], > 100 µM (inactive). In addition, the GI50 in test [19] is 40.5 µM (inactive).
As for `CCN(CC)c1ccc2cc(C(=O)NCc3ccccc3)c(=N)oc2c1`, the GI50 is 9.02 µM (inactive) in [1]; > 26.6 µM (inactive) in test [2]; > 100 µM (inactive) in [3]; 37.7 µM (inactive) in test [4]; 47.5 µM (inactive) in test [5]; 43.7 µM (inactive) in test [6]. The GI50 was > 79.6 µM (inactive) in [7]; 22.1 µM (inactive) in test [8]; > 46.3 µM (inactive) in [9]; 9.59 µM (inactive) in test [10]; 16.9 µM (inactive) in test [11]; 13.7 µM (inactive) in test [12]. Further, the GI50 was 14.4 µM (inactive) in [13]; 4.7 µM (inactive) in [14]; 16 µM (inactive) in test [15]; 39 µM (inactive) in test [16]; 40.4 µM (inactive) in [17]; 54.3 µM (inactive) in [18]. The GI50 in [19] was 3.86 µM (inactive).
`c1cnc2c(c1)ccc1cccnc12`: the GI50 in test [1] was 4.55 µM (inactive); in [2] it was 2.3 µM (inactive); in test [3], 12.6 µM (inactive); in test [4] it was 4.36 µM (inactive); in [5] it was 4.48 µM (inactive); in test [6] it was 4.26 µM (inactive). Besides, the GI50 is 4.07 µM (inactive) in test [7]; 8.91 µM (inactive) in test [8]; > 42.1 µM (inactive) in test [9]; 5.86 µM (inactive) in [10]; 4.63 µM (inactive) in [11]; 3.91 µM (inactive) in test [12]. Besides, the GI50 was 3.88 µM (inactive) in test [13]; 3.61 µM (inactive) in test [14]; 4.27 µM (inactive) in test [15]; 3.78 µM (inactive) in [16]; 6.7 µM (inactive) in test [17]; 8.57 µM (inactive) in [18]. In test [19], the GI50 was 3.67 µM (inactive).
For `COc1cc(-c2cc(OC)c(OC)c3ccc(Br)cc23)c2cc(Br)ccc2c1OC`, the GI50 in [1] was 19.2 µM (inactive); in test [2], 41.8 µM (inactive); in test [3], 23.8 µM (inactive); in test [5], 15.1 µM (inactive); in test [6], 23.9 µM (inactive); in [7], 20.2 µM (inactive). The GI50 in [8] was 18.9 µM (inactive); in test [9], 22.4 µM (inactive); in [10] it was 42.9 µM (inactive); in test [11], 15 µM (inactive); in test [12] it was 85.9 µM (inactive); in test [13], 31.1 µM (inactive). In addition, the GI50 in test [14] was 19.3 µM (inactive); in test [15] it was 39.5 µM (inactive); in test [16] it was 12.4 µM (inactive); in test [17], 36.1 µM (inactive); in test [18], 39.5 µM (inactive); in test [19], 22.4 µM (inactive).
As for `COC(=O)c1cc(C)ccc1/C=C1\Cc2c(C)cc(C)cc2C1=O`, the GI50 in [1] is 10.8 µM (inactive); in [2], 12.3 µM (inactive); in test [3], 30.8 µM (inactive); in test [4] it was 47 µM (inactive); in test [5] it was 16.1 µM (inactive); in [6], 65.3 µM (inactive). The GI50 in test [7] is 15.3 µM (inactive); in test [8], 4.56 µM (inactive); in test [9], > 36.6 µM (inactive); in test [10], 21.3 µM (inactive); in test [11], 24.4 µM (inactive); in [12], 41.5 µM (inactive). Further, the GI50 in [13] is 17.9 µM (inactive); in test [14], > 30.7 µM (inactive); in [15] it was > 100 µM (inactive); in [16], 8.41 µM (inactive); in [17], > 100 µM (inactive); in test [18] it was 15.7 µM (inactive). Further, the GI50 in test [19] was > 100 µM (inactive).
As to `C/C1=C/C(C)CC(C)OC(=O)C(C)NC(=O)C(Cc2ccc(O)c(I)c2)N(C)C(=O)C(C)NC(=O)C(C)C1` (centres undefined), the GI50 in test [1] was < 0.01 µM (active); in test [2] it was 0.0127 µM (active); in test [3], < 0.01 µM (active); in [4], 0.0354 µM (active); in test [5] it was < 0.01 µM (active); in test [6], < 0.01 µM (active). Also, the GI50 was < 0.0166 µM (active) in test [7]; < 0.0134 µM (active) in test [8]; < 0.01 µM (active) in [9]; < 0.01 µM (active) in [10]; < 0.01 µM (active) in test [11]; 0.0262 µM (active) in test [12]. The GI50 is < 0.01 µM (active) in [13]; < 0.01 µM (active) in test [14]; < 0.01 µM (active) in test [15]; < 0.01 µM (active) in test [16]; < 0.01 µM (active) in test [17]; 0.0667 µM (active) in test [18]. Further, the GI50 in test [19] was < 0.01 µM (active).
As to `CC(=O)OC(C#N)CC(C)(C)/[N+]([O-])=[N+](\[O-])C(C)(C)CC(C#N)OC(C)=O` (centres undefined), the GI50 in [1] was 18.4 µM (inactive); in test [2] it was 19.5 µM (inactive); in [3], 44.6 µM (inactive); in test [4] it was 16.1 µM (inactive); in test [5], 12.8 µM (inactive); in test [6], 10.8 µM (inactive). The GI50 is 10.8 µM (inactive) in test [7]; 12.3 µM (inactive) in [8]; 14.7 µM (inactive) in [9]; 8.47 µM (inactive) in [10]; 17.6 µM (inactive) in [11]; 16.7 µM (inactive) in [12]. Besides, the GI50 in [13] was 15.9 µM (inactive); in test [14], 11.1 µM (inactive); in [15] it was 15.7 µM (inactive); in [16], 6.7 µM (inactive); in [17], 16.1 µM (inactive); in [18] it was 23.1 µM (inactive). In addition, in test [19], the GI50 is 3.77 µM (inactive).
In the case of `[N-]=[N+]=NCC1OC(n2cnc3c(N)ncnc32)C2OC12` (centres undefined), the GI50 in test [1], in test [2], in [3], in [4], in test [5] and in [6] was > 100 µM (inactive) each time. Moreover, the GI50 in [7], in test [8], in [9], in [10], in test [11] and in test [12] was > 100 µM (inactive) each time. The GI50 in [13], in [14], in test [15], in test [16], in [17] and in test [18] was > 100 µM (inactive) each time. Further, the GI50 in test [19] was > 100 µM (inactive).
Regarding `COc1ccc(/C=C/C(=O)c2ccc(OC(=O)/C=C/c3ccccc3)cc2)cc1`, the GI50 is 18.5 µM (inactive) in test [1]; 22.7 µM (inactive) in [2]; 25.1 µM (inactive) in test [3]; 26.7 µM (inactive) in test [4]; 41.7 µM (inactive) in [5]; 18.9 µM (inactive) in test [6]. Also, the GI50 is 25 µM (inactive) in test [7]; 44.5 µM (inactive) in test [8]; 27.5 µM (inactive) in [9]; 19.3 µM (inactive) in test [10]; 24.4 µM (inactive) in [11]; 29 µM (inactive) in [12]. Further, the GI50 was 44.1 µM (inactive) in test [13]; 16.7 µM (inactive) in test [14]; 32.2 µM (inactive) in test [15]; 18.7 µM (inactive) in test [16]; 16.2 µM (inactive) in test [17]; 21.8 µM (inactive) in test [18]. In addition, the GI50 in test [19] was 5.93 µM (inactive).
